US20230027066A1 (Urovant Sciences GmbH, priority 2019, published 2023)
Read-outs that look alike come from different tables or passages of the source.

Columns and labels:
[1] = Description: A placebo group was included in the main study, and a group that received tolterodine monotherapy was included in the main study and in the extension.
[2] = tested on: men and women with overactive bladder; assay: Phase 3 study (75 mg), patient-reported outcomes (OAB-q LF, PGI); format: in vivo, human; parameters: OAB-q sleep score, improvement greater than placebo / HRQL Total Score, improvement greater than placebo / OAB-q HRQL Total Score, Active - Placebo LS Means Difference: scale not given here
Description: Patients completed paper questionnaires at the site at the start of each required study visit to assess patient-perceived symptom relief, symptom bother, and health-related quality of life at the study visits. […] These included the following questionnaires:
1. Global Impression Items include Patient Global Impression of Severity (PGI-Severity), Patient Global Impression of Control (PGI-Control), Patient Global Impression of Frequency (PGI-Frequency), Patient Global Impression of Leakage (PGI-Leakage), and Patient Global Impression of Change (PGI-Change).
2. Overactive Bladder Questionnaire (OAB-q long form [OAB-q LF], 1-week recall) is a 33-item patient-administered, disease-specific questionnaire that includes a Health-Related QoL (HRQL) scale (25 items) and a Symptom Bother Scale (8 items). The HRQL is a multidomain concept that represents the patient's general perception of the effect of illness and treatment on physical, psychological, and social aspects of life. […] In the present study, the HRQL scale is divided into 4 subscales: Coping, Concern/Worry, Sleep, and Social Interaction. The Coping subscale (also referred to as the coping domain score) was a secondary endpoint, with items scored from 1 (none of the time) to 6 (all the time), with higher scores indicating better QoL. The HRQL total score is calculated by summating the individual HRQL subscale scores. The Symptom Bother Scale items are scored from 1 (not at all) to 6 (a very great deal), with higher Symptom Bother scores indicating greater symptom severity. The instrument was developed and validated in both continent and incontinent OAB patients, including both men and women.
With the exception of the symptom bother score, a responder was defined as having a change from baseline ≥10. For symptom bother score, a responder was defined as having a change from baseline […]. A higher proportion of patients represented a favorable response.

[3] = Phase 3 study (75 mg), heart rate and blood pressure changes; format: in vivo, human
Description: Study assessments of safety included adverse events, physical examinations, vital signs (and weight), and clinical laboratory tests
Categorical changes are based on 3 consecutive post-baseline visits and patients are counted in all applicable categories (e.g., if a patient has a 12 unit increase then that patient is counted in both ≥5 and ≥10 unit columns).
Blood Pressure assessments are taken in triplicate and averaged at each visit.

[4] = 50% Total Incontinence Responders, Week 12
[5] = Week 12, responder = change from baseline ≥10
[6] = vibegron 75 mg/day, 12-week treatment
[7] = 3 consecutive post-baseline visits

O=C(Nc1ccc(C[C@@H]2CC[C@H]([C@H](O)c3ccccc3)N2)cc1)[C@@H]1CCc2nccc(=O)n21 [Vibegron, (6S)-N-[4-[[(2S,5R)−5-[(R)-hydroxy(phenyl)methyl]pyrrolidin−2-yl]methyl]phenyl]−4-oxo−7,8-dihydro−6H-pyrrolo[1,2-a]pyrimidine−6-carboxamide]
frequency of injuries ([1]; human, in vivo): 0.9%
Accidental overdose ([1]; vibegron 3 mg): 3 (2.1) n (%)
Accidental overdose ([1]; vibegron 15 mg): 6 (4.5) n (%)
Accidental overdose ([1]; vibegron 50 mg): 4 (2.7) n (%)
Accidental overdose ([1]; vibegron 100 mg): 11 (4.2) n (%)
OAB-q Coping Subscore, Change from baseline at week 12, LS Means (SE) [2, 4]: 20.3 (1.35)
OAB-q Coping Subscore, Mean [2, 4]: 83.08 (18.924)
OAB-q Symptom Bother Subscore, Change from baseline at week 12, LS Means [2, 4]: −25.5
OAB-q Symptom Bother Subscore, Mean [2, 4]: 21.18
Change from Baseline in PGI-Control, LS Mean ([2]; 75% UUI Responders, Week 4): −0.8 (0.06)
PGI-Control, Mean (SD) ([2]; 75% UUI Responders, Week 4): 2.42 (0.887)
Change from Baseline in PGI-Control, LS Mean ([2]; 75% UUI Responders, Week 8): −1.0 (0.06)
PGI-Control, Mean (SD) ([2]; 75% UUI Responders, Week 8): 2.25 (0.863)
Change from Baseline in PGI-Control, LS Mean ([2]; 75% UUI Responders, Week 12): −1.2 (0.06)
OAB-q Coping Subscore, Change from baseline at week 12, LS Means (SE) ([2]; 75% UUI Responders, Week 12): 19.7 (1.48)
OAB-q Coping Subscore, Mean (SD) ([2]; 75% UUI Responders, Week 12): 83.99 (19.232)
OAB-q Symptom Bother Subscore, Change from Baseline at Week 12, LS Means (SE) ([2]; 75% UUI Responders, Week 12): −25.8 (1.38)
OAB-q Symptom Bother Subscore, Mean (SD) ([2]; 75% UUI Responders, Week 12): 20.13 (15.862)
PGI-Control, Mean (SD) ([2]; 75% UUI Responders, Week 12): 2.02 (0.784)
OAB-q Concern Subscore, Week 12 Mean (SD) ([2]; Week 12): 80.58 (21.867)
OAB-q Concern responders, Difference from Placebo ([2]; Week 12): 5.9
OAB-q Concern, Active - Placebo LS Means Difference ([2]; Week 12): 5.0
OAB-q Concern, change from baseline LS Means (SE) ([2]; Week 12): 15.3 (1.24)
OAB-q Coping Score, Active - Placebo LS Means Difference ([2]; Week 12): 3.6
OAB-q Coping Score, change from baseline LS Means (SE) ([2]; Week 12): 16.5 (1.31)
OAB-q Coping Sub score, Week 12 Mean (SD) ([2]; Week 12): 77.26 (23.242)
OAB-q Coping responders, Difference from Placebo ([2]; Week 12): 7.5
OAB-q HRQL Total Score, Active - Placebo LS Means Difference ([2]; Week 12): 3.8
OAB-q HRQL Total Score, change from baseline LS Means (SE) ([2]; Week 12): 14.6 (1.12)
OAB-q Sleep Subscore, Week 12 Mean (SD) ([2]; Week 12): 75.59 (23.883)
OAB-q Sleep responders, Difference from Placebo ([2]; Week 12): 2.1
OAB-q Sleep, Active - Placebo LS Means Difference ([2]; Week 12): 4.5
OAB-q Sleep, change from baseline LS Means (SE) ([2]; Week 12): 14.9 (1.34)
OAB-q Social Interaction Subscore, Week 12 Mean (SD) ([2]; Week 12): 88.57 (18.011)
OAB-q Social Interaction responders, Difference from Placebo ([2]; Week 12): 5.4
OAB-q Social Interaction, Active - Placebo LS Means Difference ([2]; Week 12): 1.5
OAB-q Social Interaction, change from baseline LS Means (SE) ([2]; Week 12): 10.2 (0.97)
OAB-q Symptom Bother Subscore, Week 12 Mean (SD) ([2]; Week 12): 27.78 (19.816)
OAB-q Symptom Bother responders, Difference from Placebo ([2]; Week 12): 11.8
OAB-q Symptom Bother, Active - Placebo LS Means Difference ([2]; Week 12): −6.9
OAB-q Symptom Bother, change from baseline LS Means (SE) ([2]; Week 12): −19.6 (1.24)
OAB-q Total HRQL Score, Week 12 Mean (SD) ([2]; Week 12): 80.12 (20.175)
OAB-q Total HRQL responders, Difference from Placebo ([2]; Week 12): 5.5
OAB-q Symptom Bother responders, % ([2]; Week 12, responder = change from baseline ≤−10): (70.1) %
OAB-q Concern responders, % [2, 5]: (55.7) %
OAB-q Coping responders, % [2, 5]: (61.9) %
OAB-q Sleep responders, % [2, 5]: (53.9) %
OAB-q Total HRQL responders, % [2, 5]: (54.1) %
HRQL Total Score, improvement greater than placebo [2, 6]: 3.8
OAB-q coping domain score, improvement greater than placebo [2, 6]: 3.6
OAB-q sleep score, improvement greater than placebo [2, 6]: 4.5
OAB-q symptom bother score, decrease more than placebo [2, 6]: 6.9
Diastolic BP categorical change from baseline ≥5 mm Hg, patients [3, 7]: 7.0%
Diastolic BP categorical change from baseline ≥10 mm Hg, patients [3, 7]: 1.3%
Diastolic BP categorical change from baseline ≥15 mm Hg, patients [3, 7]: 0.2%
Heart Rate categorical change from baseline ≥5 bpm, patients [3, 7]: 8.6%
Heart Rate categorical change from baseline ≥10 bpm, patients [3, 7]: 1.8%
Heart Rate categorical change from baseline ≥15 bpm, patients [3, 7]: 0.4%
Systolic BP categorical change from baseline ≥5 mm Hg, patients [3, 7]: 11.2%
Systolic BP categorical change from baseline ≥10 mm Hg, patients [3, 7]: 4.2%
Systolic BP categorical change from baseline ≥15 mm Hg, patients [3, 7]: 1.3%
Diastolic BP, 12-week change (95% CI) ([3]; Hypertensive at baseline): −3.2 (−6.3, −0.1) mm Hg
Heart Rate, 12-week change ([3]; Hypertensive at baseline): +2.2 beats/minute
Systolic BP, 12-week change (95% CI) ([3]; Hypertensive at baseline): −9.1 (−13.8, −4.4) mm Hg
Diastolic BP, 12-week change (95% CI) ([3]; Normotensive at baseline): +0.5 (−0.2, +1.1) mm Hg
Heart Rate, 12-week change ([3]; Normotensive at baseline): +0.4 beats/minute
Systolic BP, 12-week change (95% CI) ([3]; Normotensive at baseline): +1.0(0, +2.0) mm Hg
Diastolic BP, Mean Change from Baseline at Week 12 (SD) ([3]; Week 12, all patients): 0.2 (7.43) mm Hg
Heart Rate, Mean Change from Baseline at Week 12 ([3]; Week 12, all patients): 0.5 beats/minute
Systolic BP, Mean Change from Baseline at Week 12 ([3]; Week 12, all patients): 0.2 mm Hg
